According to patent publication US10184112B2, “Culture medium additive for use in serum-free culturing of animal cell, kit and use thereof” (Two Cells Co., Ltd., priority 2006, dated 2019):
Entries after “also recorded” stand apart in the source; their conditions may differ.

Tested on: Erk 1/2
Test: Mitogenic signal transduction, western blot for phosphorylated Erk 1/2 (FIGS. 11, 12)
Type: cell-based
Settings: human mesenchymal stem cells stimulated; compared with controlled cells (not stimulated)
Method: For the purpose of clarifying a mechanism of cell proliferation in a serum-free culture medium, study was further conducted on activation of a mitogenic signal transduction system caused by each additive factor added into a serum-free culture medium. An active state of the mitogenic signal transduction system caused by each additive factor was analyzed by a western blot method. Here, in protein phosphoenzymes that are particularly closely related to cell proliferation, an extracellular signal control kinase Erk 1/2 and an Akt (a protein phosphoenzyme located downstream to PI3K, and related to regulations of cell functions) were focused in the present example. When the Erk1 1/2 and the Akt are phosphorylated, they are converted into active forms. […] The cultured cells were washed twice with PBS, and were then further cultured for 16 hours in a serum-free culture medium containing 1.25 mg/ml of BSA (bovine serum albumin). After that, the cultured cells were incubated for minutes respectively: (i) in stimulating solutions respectively containing growth factors (E: EGF, F: FGF, G: PDGF, H: HGF, I: insulin, J: TGF-β), dexamethasone (D), transferrin (T); […] B1, A6: phosphatidic acid, A7: phosphatidyl choline); and (iii) in a controlling solution containing none of them. Further, each of the stimulating solutions, and the controlling solution were removed by suction on ice, and then, the cells were washed twice with PBS. The cells thus washed were dissolved in lysis buffer. The resultant cell lysis solution was centrifuged by 6.500 g for 10 minutes, and its supernatant liquid was electrophoresed on 10% SDS-polyacrylamide gel. Proteins thus separated into fractions were transferred on a PVDF membrane (made by Millipore Co.), and then, the fractions were analyzed with antiphosphorylation-specific Erk 1/2 antibody, or antiphosphorylation-specific Akt antibody (both are made by Cell Signaling technology Inc.).

Molecule	phosphorylation of the Erk 1/2
EGF: epidermal growth factor	more phosphorylated
PDGF	more phosphorylated
insulin: medium supplement	more phosphorylated
CCCCC/C=C\C/C=C\CCCCCCCC(=O)O [linoleic acid]	promoted
HGF: growth factor added to the serum-free culture medium	more phosphorylated; also recorded: promoted in view of concentration dependence
FGF: growth factor of the fibroblast growth factor family, preferably FGF-2 (bFGF)	more phosphorylated
CCCCCCCC/C=C\CCCCCCCC(=O)O [oleic acid]	promoted
3-sn-phosphatidyl choline from egg yolk	promoted
CCCCC/C=C\C/C=C\C/C=C\C/C=C\CCCC(=O)O [arachidonic acid]	promoted
3-sn-phosphatidic acid from egg yolk	strongly promoted

Tested on: human mesenchymal stem cell
Test: not given
Settings: added to a culture medium containing 10% FBS; cited from earlier work

Molecule	proliferation of a human mesenchymal stem cell	wingless/int (wnt) signal pathway
[Cl-].[Li+] [lithium chloride]	promoting proliferation	activates

Tested on: Akt
Test: Mitogenic signal transduction, western blot for phosphorylated Akt (FIGS. 11, 12)
Type: cell-based
Settings: human mesenchymal stem cells stimulated; compared with controlled cells (not stimulated)
Method: For the purpose of clarifying a mechanism of cell proliferation in a serum-free culture medium, study was further conducted on activation of a mitogenic signal transduction system caused by each additive factor added into a serum-free culture medium. An active state of the mitogenic signal transduction system caused by each additive factor was analyzed by a western blot method. Here, in protein phosphoenzymes that are particularly closely related to cell proliferation, an extracellular signal control kinase Erk 1/2 and an Akt (a protein phosphoenzyme located downstream to PI3K, and related to regulations of cell functions) were focused in the present example. When the Erk1 1/2 and the Akt are phosphorylated, they are converted into active forms. In a culture medium containing 10% FBS on a 12-well plate, human mesenchymal stem cells (three cell lines) were cultured until the cells were in a subconfluent state. The cultured cells were washed twice with PBS, and were then further cultured for 16 hours in a serum-free culture medium containing 1.25 mg/ml of BSA (bovine serum albumin). […] Proteins thus separated into fractions were transferred on a PVDF membrane (made by Millipore Co.), and then, the fractions were analyzed with antiphosphorylation-specific Erk 1/2 antibody, or antiphosphorylation-specific Akt antibody (both are made by Cell Signaling technology Inc.).

Molecule	phosphorylation of the Akt
HGF: growth factor added to the serum-free culture medium	also promoted
3-sn-phosphatidic acid from egg yolk	strongly promoted
